Patent US20090221621A1, “Methods of Reducing Alcohol-Induced Dose Dumping for Opioid Sustained Release Oral Dosage Forms” (priority 2005, published 2009)

Assay: Release test of matrix tablets, USP Type VII, 40% EtOH/water 0-4 hrs then water vs water only (Examples 9-11)
Format: physicochemical
Conditions: oxycodone HCl and hydromorphone HCl 30 mg tablets with vs without stearyl alcohol, FIGS. 12 and 13
Description: Ten grams each of formulations with and without stearyl alcohol were prepared via wet granulation technique. The amounts set forth in Tables 5 and 6 of oxycodone hydrochloride, lactose and Eudragit® RS PO were combined in an appropriate vessel and blended for 5 minutes. The powder mixture was granulated with water until a moist mass was produced. The wet mass was then passed through a 16-mesh size screen and was allowed to dry overnight at ambient conditions. In a small vessel, the required amount of stearyl alcohol (a stiffening agent) was melted over a water bath. Keeping the molten stearyl alcohol in the water bath, the desired amount of dried granules were added and mixed until the granules were sufficiently coated with the molten stearyl alcohol. The mixture was removed from the water bath and allowed to cool at ambient conditions before sizing through a 16-mesh screen. Talc and magnesium stearate were added to the coated granules and blended using a suitable blender. The granules were then compressed to 375 mg tablets using an appropriate tabletting machine, such as a Carver press. For granules that were not coated with stearyl alcohol, granules were compressed to 300 mg tablets.
The same manufacturing procedure as Example 7 was used, with the substitution of hydromorphone HCl instead of oxycodone HCl.
Samples for this test came from Examples 7 and 8. […]

Compound: CCCCCCCCCCCCCCCCCCO [Stearyl alcohol, stearyl alcohol]
- Effect of the excipient on ethanol effect on opioid release functionality: suppressed ethanol effect on opioid functionality
